From patent publication US6903128B2, “Non-peptidyl inhibitors of VLA-4 dependent cell binding useful in treating inflammatory, autoimmune, and respiratory diseases” (Pfizer Inc, priority 1999, dated 2005)

| Structure (SMILES) | melting point [°C] |
| --- | --- |
| COc1cc(CC(=O)NC(CC(C)C)c2cc(CC(NC(=O)c3c(Cl)cccc3Cl)C(=O)O)on2)ccc1NC(=O)Nc1ccccc1C (centres unmarked) [Example 25, 2-(2,6-Dichloro-benzoylamino)-3-[3-(1-{2-[3-methoxy-4-(3-o-tolyl-ureido)-phenyl]-acetylamino}-3-methyl-butyl)-isoxazol-5-yl]-propionic acid] | 102 to 104 |
| COc1cc(CC(=O)NC(CC(C)C)c2cc(CC(NC(C)=O)C(=O)O)on2)ccc1NC(=O)Nc1ccccc1C (centres unmarked) [Example 27, 2-acetylamino-3-[3-(1-{2-[3-methoxy-4-(3-o-tolyl-ureido)-phenyl]-acetylamino}-3-methyl-butyl)-isoxazol-5-yl]-propionic acid] | 123 to 125 |
